Patent US9169270B2, “1-phenyl-substituted heterocyclyl derivatives and their use as prostaglandin D2 receptor modulators” (Actelion Pharmaceuticals Ltd., priority 2012, dated 2015)

Molecular target: hCRTH2 receptor (Homo sapiens (Human), UniProt Q9Y5Y4)
Assay: hCRTH2 receptor membranes radioligand (3H-PGD2) displacement assay
Settings: hCRTH2 membrane fragments, Binding-Buffer with 0.1% BSA
Protocol: Biological Assays: Preparation of hCRTH2 Receptor Membranes and Radioligand Displacement Assay:
First, recombinant HEK293-hCRTH2 cells were detached from culture plates into 5 ml buffer A/plate (Buffer A: 5 mM Tris, 1 mM MgCl2-6H2O pH=7.4) using a rubber policeman. Cells were then transferred into centrifugation tubes and centrifuged for 5 min at 400 g. The cell pellet was resuspended in the same buffer and tubes were frozen at −80° C. Cells were thawed and membrane fragments were generated by homogenization using a polytron homogenizer (30 seconds). The membrane fragments were then centrifuged at 3000 g for 20 minutes and resuspended in buffer C (Buffer C: 75 mM Tris, 25 mM MgCl2, 250 mM Saccharose pH 7.4). Aliquots of membrane fragments were stored at −20° C.
Binding assay was performed in a final assay volume of 250 μl. First, 25 μl of test compound, previously diluted in Binding-Buffer (Binding-Buffer: 50 mM Tris-Base, 100 mM NaCl, 1 mM EDTA, 0.1% BSA (protease free), 0.01% NaN3, 10 mM MnCl2, pH 7.0) was placed into each well. […] Binding assay was started by addition of 100 μl CRTH2 membrane fragments, reaching a final concentration of 20 μg/well. For non-specific binding, PGD2 was added to the reaction mixture to […] final concentration. This assay mix was incubated for 90 minutes at room temperature and then filtered through a GF/C filter 96-well plate which was pre-soaked for 3 hours in 0.5% polyethyleneimine (PEI). The filter-wells were washed three times with ice cold Binding-Buffer. Then, 40 μl of Microscint-40 (Packard) was added to each well and the retained radioactivity quantified in a Topcount (Packard).

Chain of hCRTH2 receptor (Q9Y5Y4 whole entry): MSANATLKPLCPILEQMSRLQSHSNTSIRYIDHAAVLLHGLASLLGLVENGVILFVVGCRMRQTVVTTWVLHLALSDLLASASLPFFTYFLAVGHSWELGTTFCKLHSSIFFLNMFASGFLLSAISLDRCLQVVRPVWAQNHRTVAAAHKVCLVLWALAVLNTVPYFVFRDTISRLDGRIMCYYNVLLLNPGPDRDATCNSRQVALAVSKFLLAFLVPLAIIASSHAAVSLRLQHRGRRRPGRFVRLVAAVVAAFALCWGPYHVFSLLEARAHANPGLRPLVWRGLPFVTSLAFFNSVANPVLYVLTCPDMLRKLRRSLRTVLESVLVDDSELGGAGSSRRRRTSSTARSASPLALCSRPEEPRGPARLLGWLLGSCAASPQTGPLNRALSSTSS

Row | SMILES | IC50 [nM]
1 | CC(C)CCOC(=O)N1CCc2ncsc2[C@H]1c1cc(Cl)ccc1OCC(=O)O [Example 67, (R)-4-(2-Carboxymethoxy-5-chloro-phenyl)-6,7-dihydro-4H-thiazolo[5,4-c]pyridine-5-carboxylic acid 3-methyl-butyl ester] | 0.4
2 | O=C(O)COc1ccc(Cl)cc1C1c2scnc2CCN1C(=O)COCc1ccccc1Cl (racemic) [Example 31, (±)-(4-Chloro-2-{5-[2-(2-chloro-benzyloxy)-acetyl]-4,5,6,7-tetrahydro-thiazolo[5,4-c]pyridin-4-yl}-phenoxy)-acetic acid] | 5
3 | Cc1nc2c(s1)[C@@H](c1cc(Cl)ccc1OCC(=O)O)N(C(=O)OCc1ccccc1)CC2 [Example 19, (R)-4-(2-Carboxymethoxy-5-chloro-phenyl)-2-methyl-6,7-dihydro-4H-thiazolo[5,4-c]pyridine-5-carboxylic acid benzyl ester] | 4.71
4 | O=C(O)COc1ccc(Cl)cc1C1c2scnc2CCN1C(=O)NCc1ccccc1Cl (racemic) [Example 108, (±)-{4-Chloro-2-[5-(2-chloro-benzylcarbamoyl)-4,5,6,7-tetrahydro-thiazolo[5,4-c]pyridin-4-yl]-phenoxy}-acetic acid] | 8.9
5 | O=C(O)COc1ccc(Cl)cc1C1c2scnc2CCN1C(=O)OCc1ccc(F)cc1 (racemic) [Example 80, (±)-4-(2-Carboxymethoxy-5-chloro-phenyl)-6,7-dihydro-4H-thiazolo[5,4-c]pyridine-5-carboxylic acid 4-fluoro-benzyl ester] | 1.9
6 | CC(C)(C)CCOC(=O)N1CCc2ncsc2[C@H]1c1cc(Cl)ccc1OCC(=O)O [Example 65, (R)-4-(2-Carboxymethoxy-5-chloro-phenyl)-6,7-dihydro-4H-thiazolo[5,4-c]pyridine-5-carboxylic acid 3,3-dimethyl-butyl ester] | 1.3
7 | C[C@H](Oc1ccc(Cl)cc1C1c2scnc2CCN1C(=O)OCc1ccccc1)C(=O)O (mixture of isomers) [Example 120, (±)-4-[2-((S)-1-Carboxy-ethoxy)-5-chloro-phenyl]-6,7-dihydro-4H-thiazolo[5,4-c]pyridine-5-carboxylic acid benzyl ester] | 64.4
8 | O=C(O)COc1ccc(Cl)cc1C1c2scnc2CCN1C(=O)CC1CC1 (racemic) [Example 41, (±)-{4-Chloro-2-[5-(2-cyclopropyl-acetyl)-4,5,6,7-tetrahydro-thiazolo[5,4-c]pyridin-4-yl]-phenoxy}-acetic acid] | 83.9
9 | O=C(O)COc1ccc(Cl)cc1[C@@H]1c2scnc2CCN1C(=O)OCc1cc(F)ccc1F [Example 58, (R)-4-(2-Carboxymethoxy-5-chloro-phenyl)-6,7-dihydro-4H-thiazolo[5,4-c]pyridine-5-carboxylic acid 2,5-difluoro-benzyl ester] | 1
10 | O=C(O)COc1ccc(Cl)cc1C1c2scnc2CCN1C(=O)CC1Cc2ccccc2C1 (racemic) [Example 46, (±)-{4-Chloro-2-[5-(2-indan-2-yl-acetyl)-4,5,6,7-tetrahydro-thiazolo[5,4-c]pyridin-4-yl]-phenoxy}-acetic acid] | 6.2
11 | CCC(C)(C)COC(=O)N1CCc2ncsc2[C@H]1c1cc(Cl)ccc1OCC(=O)O [Example 60, (R)-4-(2-Carboxymethoxy-5-chloro-phenyl)-6,7-dihydro-4H-thiazolo[5,4-c]pyridine-5-carboxylic acid 2,2-dimethyl-butyl ester] | 2
12 | O=C(O)COc1ccc(Cl)cc1C1c2sc(C3CC3)nc2CCN1C(=O)OCc1ccccc1 (racemic) [Example 14, (±)-4-(2-Carboxymethoxy-5-chloro-phenyl)-2-cyclopropyl-6,7-dihydro-4H-thiazolo[5,4-c]pyridine-5-carboxylic acid benzyl ester] | 65.7
13 | N#Cc1ccc(OCC(=O)O)c(C2c3scnc3CCN2C(=O)OCc2ccccc2)c1 (racemic) [Example 106, (±)-4-(2-Carboxymethoxy-5-cyano-phenyl)-6,7-dihydro-4H-thiazolo[5,4-c]pyridine-5-carboxylic acid benzyl ester] | 3.4
14 | O=C(O)COc1ccc(Cl)cc1C1c2scnc2CCN1C(=O)OCc1ccccc1Cl (racemic) [Example 84, (±)-4-(2-Carboxymethoxy-5-chloro-phenyl)-6,7-dihydro-4H-thiazolo[5,4-c]pyridine-5-carboxylic acid 2-chloro-benzyl ester] | 3.5
15 | O=C(O)COc1ccc(Cl)cc1C1c2scnc2CCN1C(=O)OCCc1cccc(F)c1 (racemic) [Example 77, (±)-4-(2-Carboxymethoxy-5-chloro-phenyl)-6,7-dihydro-4H-thiazolo[5,4-c]pyridine-5-carboxylic acid 2-(3-fluoro-phenyl)-ethyl ester] | 2.3

Continued, values first:

Row | IC50 [nM] | SMILES
16 | 570 | Cc1nc2c(s1)[C@H](c1cc(Cl)ccc1OCC(=O)O)N(C(=O)[C@@H]1C[C@H]1c1ccccc1)CC2 [Example 11, {4-Chloro-2-[(S)-2-methyl-5-((1R,2R)-2-phenyl-cyclopropanecarbonyl)-4,5,6,7-tetrahydro-thiazolo[5,4-c]pyridin-4-yl]-phenoxy}-acetic acid]
17 | 0.6 | O=C(O)COc1ccc(Cl)cc1[C@@H]1c2scnc2CCN1C(=O)OCc1ccccc1F [Example 75, (R)-4-(2-Carboxymethoxy-5-chloro-phenyl)-6,7-dihydro-4H-thiazolo[5,4-c]pyridine-5-carboxylic acid 2-fluoro-benzyl ester]
18 | 25.6 | Cc1ccccc1CCC(=O)N1CCc2ncsc2C1c1cc(Cl)ccc1OCC(=O)O (racemic) [Example 29, (±)-{4-Chloro-2-[5-(3-o-tolyl-propionyl)-4,5,6,7-tetrahydro-thiazolo[5,4-c]pyridin-4-yl]-phenoxy}-acetic acid]
19 | 124 | O=C(O)COc1ccc(Cl)cc1C1c2scnc2CCN1C(=O)NCc1ccc(F)cc1 (racemic) [Example 3, (±)-{4-Chloro-2-[5-(4-fluoro-benzylcarbamoyl)-4,5,6,7-tetrahydro-thiazolo[5,4-c]pyridin-4-yl]-phenoxy}-acetic acid]
20 | 3 | O=C(O)COc1ccc(Cl)cc1C1c2sc(Br)nc2CCN1C(=O)OCc1ccccc1 (racemic) [Example 20, (±)-2-Bromo-4-(2-carboxymethoxy-5-chloro-phenyl)-6,7-dihydro-4H-thiazolo[5,4-c]pyridine-5-carboxylic acid benzyl ester]
21 | 37.1 | CC1(C)CC1C(=O)N1CCc2ncsc2C1c1cc(Cl)ccc1OCC(=O)O (racemic) [Example 47, (±)-{4-Chloro-2-[(±)-5-(2,2-dimethyl-cyclopropanecarbonyl)-4,5,6,7-tetrahydro-thiazolo[5,4-c]pyridin-4-yl]-phenoxy}-acetic acid]
22 | 254 | CS(=O)(=O)Nc1nc2c(s1)C(c1cc(Cl)ccc1OCC(=O)O)N(C(=O)OCc1ccccc1)CC2 (racemic) [Example 113, (±)-4-(2-Carboxymethoxy-5-chloro-phenyl)-2-methanesulfonylamino-6,7-dihydro-4H-thiazolo[5,4-c]pyridine-5-carboxylic acid benzyl ester]
23 | 857 | CC(=O)Nc1nc2c(s1)C(c1cc(Cl)ccc1OCC(=O)O)N(C(=O)OCc1ccccc1)CC2 (racemic) [Example 116, (±)-2-Acetylamino-4-(2-carboxymethoxy-5-chloro-phenyl)-6,7-dihydro-4H-thiazolo[5,4-c]pyridine-5-carboxylic acid benzyl ester]
24 | 1.2 | Cc1cccc(COC(=O)N2CCc3ncsc3[C@H]2c2cc(Cl)ccc2OCC(=O)O)c1C [Example 72, (R)-4-(2-Carboxymethoxy-5-chloro-phenyl)-6,7-dihydro-4H-thiazolo[5,4-c]pyridine-5-carboxylic acid 2,3-dimethyl-benzyl ester]
25 | 678 | O=C(O)COc1ccc(Cl)cc1C1c2sc(NS(=O)(=O)C3CC3)nc2CCN1C(=O)OCc1ccccc1 (racemic) [Example 114, (±)-4-(2-Carboxymethoxy-5-chloro-phenyl)-2-cyclopropanesulfonylamino-6,7-dihydro-4H-thiazolo[5,4-c]pyridine-5-carboxylic acid benzyl ester]
26 | 19.6 | O=C(O)COc1ccc(Cl)cc1C1c2scnc2CCN1C(=O)CCOc1ccc(F)cc1 (racemic) [Example 21, (±)-(4-Chloro-2-{5-[3-(4-fluoro-phenoxy)-propionyl]-4,5,6,7-tetrahydro-thiazolo[5,4-c]pyridin-4-yl}-phenoxy)-acetic acid]
27 | 83.2 | Cc1ccc(OCC(=O)N2CCc3ncsc3C2c2cc(Cl)ccc2OCC(=O)O)c(C)n1 (racemic) [Example 32, (±)-(4-Chloro-2-{5-[2-(2,6-dimethyl-pyridin-3-yloxy)-acetyl]-4,5,6,7-tetrahydro-thiazolo[5,4-c]pyridin-4-yl}-phenoxy)-acetic acid]
28 | 12.6 | O=C(O)COc1ccc(Cl)cc1C1c2scnc2CCN1C(=O)Cc1cccc2ccccc12 (racemic) [Example 50, (±)-{4-Chloro-2-[5-(2-naphthalen-1-yl-acetyl)-4,5,6,7-tetrahydro-thiazolo[5,4-c]pyridin-4-yl]-phenoxy}-acetic acid]
